Columns and labels:
Recombinant JAK3 = molecular target: T1, Recombinant JAK3 (Homo sapiens, UniProt P52333); experiment: JAK biochemical assay (LANCE Ultra TR-FRET), JAK3; settings: recombinant JAK3, TR-FRET; read-out: Biochemical Assay (μM) JAK3
T1 construct: purchased Carna Biosciences
T1 sequence (P52333 1-1124): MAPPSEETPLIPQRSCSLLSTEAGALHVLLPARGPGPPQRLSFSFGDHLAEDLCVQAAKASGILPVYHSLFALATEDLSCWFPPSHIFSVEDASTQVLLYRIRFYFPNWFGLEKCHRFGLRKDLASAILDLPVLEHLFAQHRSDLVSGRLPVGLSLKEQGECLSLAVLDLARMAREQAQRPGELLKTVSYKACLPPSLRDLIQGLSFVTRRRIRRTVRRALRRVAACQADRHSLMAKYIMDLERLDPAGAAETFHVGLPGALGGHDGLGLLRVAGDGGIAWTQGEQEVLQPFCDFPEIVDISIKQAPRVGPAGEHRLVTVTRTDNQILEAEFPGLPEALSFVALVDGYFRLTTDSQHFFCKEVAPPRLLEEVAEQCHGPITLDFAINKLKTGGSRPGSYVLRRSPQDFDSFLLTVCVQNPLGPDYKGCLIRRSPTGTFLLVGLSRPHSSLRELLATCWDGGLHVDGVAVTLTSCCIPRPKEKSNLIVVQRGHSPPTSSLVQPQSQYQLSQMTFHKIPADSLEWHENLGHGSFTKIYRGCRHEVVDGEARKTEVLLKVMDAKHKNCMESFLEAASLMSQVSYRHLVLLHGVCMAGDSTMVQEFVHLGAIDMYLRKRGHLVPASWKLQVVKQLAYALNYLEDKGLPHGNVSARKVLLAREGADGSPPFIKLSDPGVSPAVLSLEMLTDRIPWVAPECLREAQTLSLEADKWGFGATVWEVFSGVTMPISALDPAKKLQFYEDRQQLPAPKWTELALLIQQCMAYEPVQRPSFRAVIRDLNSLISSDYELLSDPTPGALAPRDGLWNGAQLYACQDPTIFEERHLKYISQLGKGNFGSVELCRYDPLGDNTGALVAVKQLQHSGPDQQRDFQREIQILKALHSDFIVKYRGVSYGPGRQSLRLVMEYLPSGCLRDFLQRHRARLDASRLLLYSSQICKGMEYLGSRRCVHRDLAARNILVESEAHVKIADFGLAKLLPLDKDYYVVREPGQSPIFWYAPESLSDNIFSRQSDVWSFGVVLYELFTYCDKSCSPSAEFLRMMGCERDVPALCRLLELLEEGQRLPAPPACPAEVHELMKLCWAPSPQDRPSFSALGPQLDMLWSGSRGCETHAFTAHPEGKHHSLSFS
Experimental: (§1) Recombinant JAK1, JAK2, JAK3 and TYK2 (Carna Biosciences) were used to develop biochemical assays in 50 mM HEPES pH 7.5, 1 mM EGTA, 10 mM MgCl2, 2 mM DTT and 0.01% Tween-20. […] The intensity of the light emission is proportional to the level of ULight substrate phosphorylation. Compounds which interfere with JAK enzyme activity show a lesser substrate phosphorylation and values are projected in terms of % inhibition in comparison to vehicle control.

Recombinant JAK2 = molecular target: T2, Recombinant JAK2 (Homo sapiens, UniProt O60674); experiment: JAK biochemical assay (LANCE Ultra TR-FRET), JAK2; settings: recombinant JAK2, TR-FRET; read-out: Biochemical Assay (μM) JAK2
T2 construct: purchased Carna Biosciences
T2 sequence (O60674 whole entry): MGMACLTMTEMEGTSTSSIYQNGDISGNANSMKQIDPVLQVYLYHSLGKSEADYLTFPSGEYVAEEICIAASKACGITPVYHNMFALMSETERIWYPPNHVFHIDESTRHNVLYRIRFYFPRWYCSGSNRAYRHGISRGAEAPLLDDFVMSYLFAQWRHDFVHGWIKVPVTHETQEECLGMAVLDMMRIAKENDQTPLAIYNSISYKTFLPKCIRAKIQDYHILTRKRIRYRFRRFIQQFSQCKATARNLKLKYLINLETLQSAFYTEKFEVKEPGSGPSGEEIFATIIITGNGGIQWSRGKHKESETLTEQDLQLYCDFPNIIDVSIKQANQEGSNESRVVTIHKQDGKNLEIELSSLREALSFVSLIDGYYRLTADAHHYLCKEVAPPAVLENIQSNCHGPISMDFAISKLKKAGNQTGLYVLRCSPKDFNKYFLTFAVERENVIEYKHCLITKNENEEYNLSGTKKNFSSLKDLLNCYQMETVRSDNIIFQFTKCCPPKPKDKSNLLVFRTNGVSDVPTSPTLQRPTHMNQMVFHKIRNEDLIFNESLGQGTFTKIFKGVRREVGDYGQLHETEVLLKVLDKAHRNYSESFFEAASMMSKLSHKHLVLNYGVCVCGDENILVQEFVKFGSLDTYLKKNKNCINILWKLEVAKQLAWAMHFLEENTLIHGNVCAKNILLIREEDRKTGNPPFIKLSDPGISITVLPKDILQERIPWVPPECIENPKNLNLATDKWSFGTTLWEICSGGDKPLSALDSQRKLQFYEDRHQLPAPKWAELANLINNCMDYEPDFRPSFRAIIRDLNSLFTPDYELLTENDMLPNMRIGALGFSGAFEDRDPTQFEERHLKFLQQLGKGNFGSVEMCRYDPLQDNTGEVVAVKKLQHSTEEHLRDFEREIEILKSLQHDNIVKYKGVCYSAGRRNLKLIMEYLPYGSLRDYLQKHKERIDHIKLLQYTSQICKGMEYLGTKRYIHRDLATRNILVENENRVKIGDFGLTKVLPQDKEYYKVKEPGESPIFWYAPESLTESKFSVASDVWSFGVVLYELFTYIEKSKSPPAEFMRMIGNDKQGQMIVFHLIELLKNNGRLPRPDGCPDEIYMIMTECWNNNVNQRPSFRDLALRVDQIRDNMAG
Experimental: as §1

Recombinant TYK2 = molecular target: T3, Recombinant TYK2 (Homo sapiens, UniProt P29597); experiment: JAK biochemical assay (LANCE Ultra TR-FRET), TYK2; settings: recombinant TYK2, TR-FRET; read-out: Biochemical Assay (μM) TYK2
T3 construct: purchased Carna Biosciences
T3 sequence (P29597 whole entry): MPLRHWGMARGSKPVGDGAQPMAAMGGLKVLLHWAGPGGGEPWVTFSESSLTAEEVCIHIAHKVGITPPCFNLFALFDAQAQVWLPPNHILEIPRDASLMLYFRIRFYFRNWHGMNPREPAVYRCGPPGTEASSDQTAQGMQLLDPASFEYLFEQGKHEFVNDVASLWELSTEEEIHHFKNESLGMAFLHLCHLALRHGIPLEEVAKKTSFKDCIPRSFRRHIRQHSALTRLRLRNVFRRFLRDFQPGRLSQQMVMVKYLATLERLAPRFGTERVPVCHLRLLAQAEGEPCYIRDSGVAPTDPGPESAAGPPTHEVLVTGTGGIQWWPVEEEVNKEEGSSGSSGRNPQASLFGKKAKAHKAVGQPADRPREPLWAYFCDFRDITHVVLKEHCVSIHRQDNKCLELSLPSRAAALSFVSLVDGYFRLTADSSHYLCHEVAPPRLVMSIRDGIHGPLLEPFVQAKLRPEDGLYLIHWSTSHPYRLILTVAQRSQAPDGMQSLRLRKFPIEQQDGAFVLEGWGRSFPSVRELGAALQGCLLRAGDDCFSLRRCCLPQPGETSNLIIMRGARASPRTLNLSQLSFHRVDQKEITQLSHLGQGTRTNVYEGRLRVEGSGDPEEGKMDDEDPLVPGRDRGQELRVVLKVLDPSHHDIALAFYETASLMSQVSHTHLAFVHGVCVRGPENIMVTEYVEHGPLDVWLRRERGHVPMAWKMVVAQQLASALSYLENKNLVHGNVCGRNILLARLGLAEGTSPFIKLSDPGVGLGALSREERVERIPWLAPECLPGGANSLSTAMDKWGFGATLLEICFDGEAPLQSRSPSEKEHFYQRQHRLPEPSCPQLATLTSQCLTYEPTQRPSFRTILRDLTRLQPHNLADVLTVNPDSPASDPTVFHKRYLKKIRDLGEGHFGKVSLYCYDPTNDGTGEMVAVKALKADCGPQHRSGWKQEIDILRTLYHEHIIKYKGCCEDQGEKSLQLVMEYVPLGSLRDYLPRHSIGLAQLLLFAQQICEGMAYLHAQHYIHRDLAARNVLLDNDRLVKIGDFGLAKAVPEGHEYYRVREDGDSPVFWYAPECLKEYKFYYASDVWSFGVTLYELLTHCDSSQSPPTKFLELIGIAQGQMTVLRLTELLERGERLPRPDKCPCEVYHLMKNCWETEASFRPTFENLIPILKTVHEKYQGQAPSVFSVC
Experimental: as §1

Recombinant JAK1 = molecular target: T4, Recombinant JAK1 (Homo sapiens, UniProt P23458); experiment: JAK biochemical assay (LANCE Ultra TR-FRET), JAK1; settings: recombinant JAK1, TR-FRET; read-out: Biochemical Assay (μM) JAK1
T4 construct: purchased Carna Biosciences
T4 sequence (P23458 whole entry): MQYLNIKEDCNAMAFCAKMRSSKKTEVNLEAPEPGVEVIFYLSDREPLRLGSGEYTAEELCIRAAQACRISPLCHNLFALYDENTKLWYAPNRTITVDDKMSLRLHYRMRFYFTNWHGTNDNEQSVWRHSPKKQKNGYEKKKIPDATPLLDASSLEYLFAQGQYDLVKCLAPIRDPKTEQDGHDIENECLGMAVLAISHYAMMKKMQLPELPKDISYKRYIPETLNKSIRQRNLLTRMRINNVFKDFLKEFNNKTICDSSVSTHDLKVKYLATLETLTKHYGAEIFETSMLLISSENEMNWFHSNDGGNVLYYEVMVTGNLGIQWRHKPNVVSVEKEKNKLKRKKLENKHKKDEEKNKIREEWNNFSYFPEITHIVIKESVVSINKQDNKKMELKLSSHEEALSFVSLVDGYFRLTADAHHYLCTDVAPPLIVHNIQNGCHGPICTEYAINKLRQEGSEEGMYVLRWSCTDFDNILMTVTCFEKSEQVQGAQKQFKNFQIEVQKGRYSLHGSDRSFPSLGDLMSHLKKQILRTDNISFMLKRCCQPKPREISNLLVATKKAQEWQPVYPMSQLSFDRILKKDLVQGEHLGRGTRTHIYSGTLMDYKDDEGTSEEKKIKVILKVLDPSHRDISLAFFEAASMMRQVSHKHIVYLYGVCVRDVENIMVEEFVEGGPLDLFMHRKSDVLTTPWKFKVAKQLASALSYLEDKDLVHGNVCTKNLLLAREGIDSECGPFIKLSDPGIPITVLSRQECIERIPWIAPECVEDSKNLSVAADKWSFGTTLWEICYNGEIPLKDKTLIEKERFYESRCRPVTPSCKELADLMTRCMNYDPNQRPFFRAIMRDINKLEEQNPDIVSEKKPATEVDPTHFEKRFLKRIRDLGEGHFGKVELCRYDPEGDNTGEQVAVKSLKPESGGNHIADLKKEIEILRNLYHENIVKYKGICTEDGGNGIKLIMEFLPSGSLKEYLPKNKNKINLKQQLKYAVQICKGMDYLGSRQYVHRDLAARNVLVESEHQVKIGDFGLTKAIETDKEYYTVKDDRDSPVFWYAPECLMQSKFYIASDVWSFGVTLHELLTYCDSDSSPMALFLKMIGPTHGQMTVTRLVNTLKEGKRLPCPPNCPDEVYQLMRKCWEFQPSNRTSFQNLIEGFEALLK
Experimental: as §1

SMILES	IC50 (Recombinant JAK3)	IC50 (Recombinant JAK2)	IC50 (Recombinant TYK2)	IC50 (Recombinant JAK1)
N#CCNC(=O)N1CCN(c2ccnc3[nH]c(=O)[nH]c23)CC1 [Example 1012, N-(cyanomethyl)-4-(2,3-dihydro-2-oxo-1H-imidazo[4,5-b]pyridin-7-yl)piperazine-1-carboxamide]	> 1 µM	–	–	–
CS(=O)(=O)CCNC(=O)N1CCN(c2ccnc3[nH]c(=O)[nH]c23)CC1 [Example 1013, 4-(2,3-dihydro-2-oxo-1H-imidazo[4,5-b]pyridin-7-yl)-N-(2-(methylsulfonyl)ethyl)piperazine-1-carboxamide]	> 10 µM	> 10 µM	> 10 µM	> 10 µM
CCC(C)(C#N)NC(=O)n1cc(-c2ccnc3[nH]c(=O)[nH]c23)cn1 (stereo not shown) [Example 1040, N-(2-cyanobutan-2-yl)-4-(2,3-dihydro-2-oxo-1H-imidazo[4,5-b]pyridin-7-yl)-1H-pyrazole-1-carboxamide]	–	–	> 1 µM	–
N#CC1CN(C(=O)c2ccc(-n3cc(-c4ccnc5[nH]cnc45)cn3)nc2)C1 [Example 1089, 1-(6-(4-(3H-imidazo[4,5-b]pyridin-7-yl)-1H-pyrazol-1-yl)nicotinoyl)azetidine-3-carbonitrile]	> 1 µM	> 0.5 µM	> 1 µM	> 0.5 µM
O=C(Nc1ccnc(F)c1)N1CCN(c2ccnc3[nH]c(=O)[nH]c23)CC1 [Example 1015, N-(2-fluoropyridin-4-yl)-4-(2,3-dihydro-2-oxo-1H-imidazo[4,5-b]pyridin-7-yl)piperazine-1-carboxamide]	> 1 µM	> 1 µM	> 1 µM	–
CN(C)C(c1ccc(-n2cc(-c3ccnc4[nH]cnc34)cn2)nc1)C(F)(F)F (stereo not shown) [Example 1121, 1-(6-(4-(3H-imidazo[4,5-b]pyridin-7-yl)-1H-pyrazol-1-yl)pyridin-3-yl)-2,2,2-trifluoro-N,N-dimethylethanamine]	> 0.1 µM	> 0.1 µM	> 1 µM	–
CCn1c(=O)[nH]c2nccc(-c3cnn(C(=O)NCC(F)(F)F)c3)c21 [Example 1042, 4-(1-ethyl-2,3-dihydro-2-oxo-1H-imidazo[4,5-b]pyridin-7-yl)-N-(2,2,2-trifluoroethyl)-1H-pyrazole-1-carboxamide]	> 10 µM	> 1 µM	> 10 µM	> 10 µM
CS(=O)(=O)CCC(F)c1ccc(-n2cc(-c3ccnc4[nH]cnc34)cn2)nc1 (stereo not shown) [Example 1162, 7-(1-(5-(1-fluoro-3-(methylsulfonyl)propyl)pyridin-2-yl)-1H-pyrazol-4-yl)-3H-imidazo[4,5-b]pyridine]	> 0.5 µM	> 0.5 µM	> 1 µM	> 0.5 µM
Cn1c(=O)[nH]c2nccc(-c3cnn(C(=O)NCC(F)(F)F)c3)c21 [Example 1029, N-(2,2,2-trifluoroethyl)-4-(2,3-dihydro-1-methyl-2-oxo-1H-imidazo[4,5-b]pyridin-7-yl)-1H-pyrazole-1-carboxamide]	> 10 µM	> 10 µM	> 10 µM	> 10 µM
c1cc(-c2cnn(-c3ccc(CN4CCOCC4)cn3)c2)c2nc[nH]c2n1 [Example 1085, 7-(1-(5-(morpholinomethyl)pyridin-2-yl)-1H-pyrazol-4-yl)-3H-imidazo[4,5-b]pyridine]	> 1 µM	> 1 µM	> 10 µM	> 1 µM
O=C(NCC(F)(F)F)Nc1ccc(-c2ccnc3[nH]cnc23)cc1 [Example 1010, 1-(4-(3H-imidazo[4,5-b]pyridin-7-yl)phenyl)-3-(2,2,2-trifluoroethyl)urea]	> 0.5 µM	< 0.5 µM	> 1 µM	< 0.5 µM
N#CC1CN(C(=O)CNC(=O)n2cc(-c3ccnc4[nH]c(=O)[nH]c34)cn2)C1 [Example 1059, N-(2-(3-cyanoazetidin-1-yl)-2-oxoethyl)-4-(2-oxo-2,3-dihydro-1H-imidazo[4,5-b]pyridin-7-yl)-1H-pyrazole-1-carboxamide]	> 10 µM	> 1 µM	> 10 µM	> 1 µM
CC1(C)CN(C(=O)N2CCN(c3ccnc4[nH]c(=O)[nH]c34)CC2)C1 [Example 1023, 7-(4-(3,3-dimethylazetidine-1-carbonyl)piperazin-1-yl)-1,3-dihydro-2H-imidazo[4,5-b]pyridin-2-one]	> 10 µM	> 10 µM	> 10 µM	> 10 µM
CS(=O)(=O)CCC(c1cccc(-n2cc(-c3ccnc4[nH]cnc34)cn2)n1)C(F)(F)F (stereo not shown) [Example 1175, 7-(1-(6-(1,1,1-trifluoro-4-(methylsulfonyl)butan-2-yl)pyridin-2-yl)-1H-pyrazol-4-yl)-3H-imidazo[4,5-b]pyridine]	> 1 µM	> 1 µM	> 1 µM	> 1 µM
O=C(Cc1ccc(-n2cc(-c3ccnc4[nH]cnc34)cn2)nc1)NCC(F)(F)F [Example 1092, 2-(6-(4-(3H-imidazo[4,5-b]pyridin-7-yl)-1H-pyrazol-1-yl)pyridin-3-yl)-N-(2,2,2-trifluoroethyl)acetamide]	> 1 µM	> 1 µM	> 1 µM	> 1 µM
CN1CCC(C(O)c2ccc(-n3cc(-c4ccnc5[nH]cnc45)cn3)nc2)CC1 (stereo not shown) [Example 1165, (6-(4-(3H-imidazo[4,5-b]pyridin-7-yl)-1H-pyrazol-1-yl)pyridin-3-yl)(1-methylpiperidin-4-yl)methanol]	> 1 µM	> 1 µM	> 1 µM	> 1 µM
OC(c1ccnc(-n2cc(-c3ccnc4[nH]cnc34)cn2)c1)C(F)(F)F (stereo not shown) [Example 1172, 1-(2-(4-(3H-imidazo[4,5-b]pyridin-7-yl)-1H-pyrazol-1-yl)pyridin-4-yl)-2,2,2-trifluoroethanol]	< 0.1 µM	–	> 1 µM	–
FC(F)(F)C(c1ccc(-n2cc(-c3ccnc4[nH]cnc34)cn2)nc1)N1CCOCC1 (stereo not shown) [Example 1137, 7-(1-(5-(2,2,2-trifluoro-1-morpholinoethyl)pyridin-2-yl)-1H-pyrazol-4-yl)-3H-imidazo[4,5-b]pyridine]	> 0.5 µM	> 0.5 µM	> 1 µM	–
OC(c1ccc(-n2cc(-c3ccnc4[nH]cnc34)cn2)nc1)(C1CCCC1)C(F)(F)F (stereo not shown) [Example 1132, 1-(6-(4-(3H-imidazo[4,5-b]pyridin-7-yl)-1H-pyrazol-1-yl)pyridin-3-yl)-1-cyclopentyl-2,2,2-trifluoroethanol]	> 0.1 µM	> 0.5 µM	> 1 µM	–
CC(NC(=O)N1CCN(c2ccnc3[nH]c(=O)[nH]c23)CC1)C(F)(F)F (stereo not shown) [Example 1021, N-(1,1,1-trifluoropropan-2-yl)-4-(2,3-dihydro-2-oxo-1H-imidazo[4,5-b]pyridin-7-yl)piperazine-1-carboxamide]	> 1 µM	> 1 µM	> 1 µM	–
CC(C)(C#N)NC(=O)n1cc(-c2ccnc3[nH]c(=O)[nH]c23)cn1 [Example 1033, N-(2-cyanopropan-2-yl)-4-(2,3-dihydro-2-oxo-1H-imidazo[4,5-b]pyridin-7-yl)-1H-pyrazole-1-carboxamide]	> 1 µM	–	> 1 µM	–
COc1cc(NC(=O)N2CCN(c3ccnc4[nH]c(=O)[nH]c34)CC2)ccn1 [Example 1019, 4-(2,3-dihydro-2-oxo-1H-imidazo[4,5-b]pyridin-7-yl)-N-(2-methoxypyridin-4-yl)piperazine-1-carboxamide]	> 1 µM	> 1 µM	> 1 µM	–
O=C(NCC(F)(F)F)Nc1cnc(-c2ccnc3[nH]c(=O)[nH]c23)cn1 [Example 1006, 1-(5-(2-oxo-2,3-dihydro-1H-imidazo[4,5-b]pyridin-7-yl)pyrazin-2-yl)-3-(2,2,2-trifluoroethyl)urea]	–	–	> 1 µM	–

— patent US12516056B2, “Compounds for inhibition of janus kinase 1” (MANKIND PHARMA LTD., priority 2019, dated 2026)
